# In paper doi:10.1101/507434v1 (bioRxiv, 2018):
# Read-outs that look alike come from different tables or passages of the source. Bridge positions count the residues as written; N and C are the ends. Square brackets hold non-standard residues; d marks the D form. Ends that are not written are not given here. Peptide text beside a SMILES is read from it. d2Nal = N[C@H](Cc1ccc2ccccc2c1)C(=O)O; Nle = CCCC[C@H](N)C(=O)O
# Key:
# [1] = ref Gallagher et al., 2016, cited from earlier work; for plasma half-life: separate experiment, in vitro or in vivo not stated
# [2] = system: orthotopic human breast cancer cell line transplant (cell line MDA-MB-231); conditions: ref Gallagher et al., 2016; cited from earlier work
# HCV replicon = conditions: cellular HCV replicon assay; ref Bradford and Cowan, 2012; cited from earlier work
# [3] = Plasma and liver concentration of antiviral peptides after oral gavage in mice; assay type: in vivo, female mice; conditions: for level at time molar at 1 h / level at time molar at 2.5 h / level at time molar at 0.5 h / level at time molar at 2 h / level at time molar at 4 h: female, mouse, po; for level at time molar at 1 h / level at time molar at 2.5 h: 72 mg/kg; for level at time molar at 0.5 h / level at time molar at 2 h / level at time molar at 4 h: 60 mg/kg
# [4] = system: hepatitis C virus (HCV) RNA; assay: Standard solution assays of anti-hepatitis C activity; assay type: biochemical
# Lewis sarcoma rat model = assay: Lewis sarcoma rat cancer cachexia model; assay type: in vivo; conditions: tumor-bearing rats, SC; for summary 6-Day food intake: two daily doses
# [5] = system: rats given LPS to induce cachexia; assay: LPS; assay type: in vivo, rat; conditions: for body weight as percent of pre-LPS baseline (Fig 1 Panel D) / food intake (Fig 1 Panel C): rats given LPS, peptide IP at 2mg/kg, 24 hours following challenge, 8/group; for oral anticachexia activity: LPS challenge, oral route of peptide administration
# [6] = Pharmacokinetics of TCMCB07 in anesthetized rats: plasma and bile levels; assay type: in vivo, Sprague-Dawley rats
# [7] = ref Iusuf et al., 2008; cited from earlier work
compound,measurement,setting,value
Ac-Nle-c(Asp-Arg-Val-Tyr-Ile-His-Pro-Lys)-D-Val-D-Pro-NH2 (sidechain bridge or staple) [TCANG05],plasma half-life,[1],50 h
same,stability compared to angiotensin 1-7,[1]; using in vitro and in vivo assays,greatly enhanced stability
same,oral activity,[2],orally active
"GGHY[dR]FK [Metallo-drug 2-Cu, reference compound]",antiviral activity,HCV replicon,confirmed
same,oral availability,"[3]; mice, oral gavage, also short circulating half-life and poor liver uptake stated",no oral availability
CC(=O)NCC(=O)NCC(=O)N[C@@H](Cc1c[nH]cn1)C(=O)N[C@H]1CC(=O)NCCCC[C@@H](C(=O)N[C@@H](C(=O)N2CCC[C@@H]2C(N)=O)C(C)C)NC(=O)[C@H](CCCCN)NC(=O)[C@H](Cc2ccccc2)NC(=O)[C@H](CCCNC(=N)N)NC(=O)[C@H](Cc2ccc(O)cc2)NC1=O [TCMP01] (Ac-GGHDYRFKK[dV][dP]-NH2; lactam 4-9),solution antihepatitis activity relative to the parent peptide Metallo-drug 2-Cu,[4],within a factor of two
same,level at time molar at 1 h,[3]; liver,14 nM
same,level at time molar at 2.5 h,[3]; liver,4 nM
same,level at time molar at 1 h,[3]; plasma,1000 nM
same,level at time molar at 2.5 h,[3]; plasma,24 nM
CCCC[C@H](NC(C)=O)C(=O)N[C@H]1CC(=O)NCCCC[C@@H](C(=O)N[C@@H](C(=O)N2CCC[C@@H]2C(N)=O)C(C)C)NC(=O)[C@H](Cc2c[nH]c3ccccc23)NC(=O)[C@H](CCCNC(=N)N)NC(=O)[C@@H](Cc2ccc3ccccc3c2)NC(=O)[C@@H]2CCCN2C1=O [TCMCB07] (Ac-[Nle]DP[d2Nal]RWK[dV][dP]-NH2; lactam 2-7),tumor weight / tumor growth,"Lewis sarcoma rat model; 1.5 and 3 mg/kg BW/day, data not shown",no effect on tumor growth
same,summary 6-Day food intake,Lewis sarcoma rat model; total 1.5 mg/kg BW/day (LB07),not different than Sham/saline controls
same,summary 6-Day food intake,Lewis sarcoma rat model; total 3mg/kg BW/day (HB07),not different than Sham/saline controls
same,body weight as percent of pre-LPS baseline (Fig 1 Panel D),[5],produced a significant weight gain
same,food intake (Fig 1 Panel C),[5],stimulated appetite
same,oral anticachexia activity,[5]; rats,shown to have oral anticachexia activity
CC(=O)NCC(=O)NCC(=O)N[C@@H](Cc1c[nH]cn1)C(=O)N[C@H]1CC(=O)NCCCC[C@@H](C(=O)N[C@@H](C(=O)N2CCC[C@@H]2C(N)=O)C(C)C)NC(=O)[C@H](CCCCN)NC(=O)[C@H](Cc2ccccc2)NC(=O)[C@H](CCCNC(=N)N)NC(=O)[C@H](Cc2ccc(O)cc2)NC(=O)[C@@H]2CCCN2C1=O [TCMP03] (Ac-GGHDPYRFKK[dV][dP]-NH2; lactam 4-10),solution antihepatitis activity relative to the parent peptide Metallo-drug 2-Cu,[4],within a factor of two
same,level at time molar at 0.5 h,[3]; liver,43 nM
same,level at time molar at 2 h,[3]; liver,30 nM
same,level at time molar at 4 h,[3]; liver,4 nM
same,level at time molar at 0.5 h,[3]; plasma,2910 nM
same,level at time molar at 2 h,[3]; plasma,75700 nM
same,level at time molar at 4 h,[3]; plasma,384 nM
same,enhancement of hepatic (target tissue) uptake relative to TCMP01,"[3]; mice, oral gavage, Table 3",4 fold
Ac-Nle-^1 c(Asp-Pro-D-Nal2’-Arg-Trp-Lys)-D-Pro-D-Val-NH2 (sidechain bridge or staple) [TCMCB02],oral anticachexia activity,[5]; rats,no oral anticachexia activity
same,overnight body weight gain,"[5]; rats, parenteral peptide after parenteral LPS, end of 12 hr dark cycle, n=6",~5%
CCCC[C@H](NC(C)=O)C(=O)N[C@H]1CC(=O)NCCCC[C@@H](C(=O)N[C@@H](C(=O)N2CCC[C@@H]2C(N)=O)C(C)C)NC(=O)[C@H](Cc2c[nH]c3ccccc23)NC(=O)[C@H](CCCN=C(N)N)NC(=O)[C@@H](Cc2ccc3ccccc3c2)NC(=O)[C@@H]2CCCN2C1=O [TCMCB07] (Ac-[Nle]DP[d2Nal]RWK[dV][dP]-NH2; lactam 2-7),Tmax,"[6]; Sprague-Dawley, rat, plasma, sc, 3 mg/kg",2.5 h
same,in vivo mechanism of clearance,"[6]; anesthetized rats, 3mg/kg SC (Fig. 3)",hepatic blood-to-bile transport
Ac-Nle-c[Asp-Pro-D-Nal(2′)-Arg-Trp-Lys]-β-Pro-β^2-Val-NH2 (sidechain bridge or staple) [TCMCB05],body weight as percent of pre-LPS baseline (Fig 1 Panel D),[5],produced a significant weight gain
same,food intake (Fig 1 Panel C),[5],stimulated appetite
Ac-Nle-c[Asp-Pro-D-Nal(2′)-Arg-Trp-Lys]-β-Pro-β^3-Val-NH2 (sidechain bridge or staple) [TCMCB06],body weight as percent of pre-LPS baseline (Fig 1 Panel D),[5],no weight gain
"Asp-Arg-Val-Tyr-Ile-His-Pro-OH [angiotensin^1-7, reference compound]",plasma half-life,[7],~0.5 h
same,plasma half-life,[1],0.5 h
same,oral activity,[2],not orally active
